Data taken from US20130237550A1, “ARYLVINYLAZACYCLOALKANE COMPOUNDS FOR CONSTIPATION” (TARGACEPT, INC., priority 2010, published 2013).

Legend:
[1] = system: Taxol®-induced neuropathy; experiment: Taxol-induced (chemotherapy induced) neuropathy model; type: in vivo
[2] = Single (SRD) and multiple rising dose (MRD) studies in normal healthy subjects; type: in vivo, human; conditions: oral; human plasma; read-out: systemic (plasma) half-life
Description: (§1) In the MRD study, following doses 10 mg administered 4 times daily, nausea and vomiting typically occurred within 30 min of dosing—prior to significant systemic absorption. Diarrhea was typically observed more than 5 hours following dosing, when systemic concentrations were approximately 20% of Cmax values. […] Such pharmacodynamic GI motility responses appear to correlate primarily with local effects (possibly agonism of α3β4 receptors located on enterochromaffin cells) rather than systemic plasma concentrations.

normal healthy subjects = experiment: as above; type: in vivo, human
Description: as §1

subjects with IBS-C = experiment: Randomized, double-blind, placebo controlled proof of principle study in IBS-C; type: in vivo, human
Description: A randomized, double-blind, placebo controlled, parallel group, proof of principle study to evaluate the safety, tolerability, and efficacy of Compound A in the treatment of Constipation-Predominant Irritable Bowel Syndrome was conducted.
The objectives of the study include the following: to assess the efficacy of Compound A in the treatment of Constipation Predominant Irritable Bowel Syndrome (IBS-C); and to assess the safety, tolerability and pharmacokinetic profile of Compound A in subjects with IBS-C when administered as a enteric coated capsule for a period of 28 days.
Subjects with constipation predominant irritable bowel syndrome (IBS-C) defined by: the ROME III criteria as: recurrent abdominal pain or discomfort at least 3 days per month, during the previous 3 months that is associated with 2 or more of the following: (1) relieved by defecation; (2) onset associated with a change in stool frequency; and/or (3) onset associated with a change in stool appearance.
Treatment included 5 mg daily (as Enteric Coated capsule) for 14 days followed by 5 mg BID for another 14 days. One endpoint includes global IBS symptom relief (7-point scale). Another endpoint includes bowel movement frequency, pain, bloating, straining, stool consistency, and frequency of rescue medication (laxative). Statistically, a was set to 0.1.

[3] = system: rat Streptozotocin-induced diabetic neuropathy model; experiment: Streptozotocin-induced diabetic neuropathy (allodynia) model; type: in vivo; conditions: STZ rat; for pain sensitivity (allodynia testing of the hindpaw): Week 6, versus vehicle-treated animals
Text: Preclinically, in two animal models of neuropathic pain, repeat administration of Compound A produced significant analgesia. […] With reference to WO 08/157,365, the rat Streptozotocin-induced diabetic neuropathy model is a clinically relevant model of diabetic neuropathy, which replicates elements of the human situation diabetic condition such as high glucose levels, neuropathic pain in the extremities, and generally poor health.

[4] = biological target: α4β2 nueronal nicotinic receptors (Homo sapiens, UniProt P17787+P43681); experiment: Agonism at α4β2 neuronal nicotinic receptors (statement)
α4β2 nueronal nicotinic receptors, sequence (P43681 29-627 limits assumed): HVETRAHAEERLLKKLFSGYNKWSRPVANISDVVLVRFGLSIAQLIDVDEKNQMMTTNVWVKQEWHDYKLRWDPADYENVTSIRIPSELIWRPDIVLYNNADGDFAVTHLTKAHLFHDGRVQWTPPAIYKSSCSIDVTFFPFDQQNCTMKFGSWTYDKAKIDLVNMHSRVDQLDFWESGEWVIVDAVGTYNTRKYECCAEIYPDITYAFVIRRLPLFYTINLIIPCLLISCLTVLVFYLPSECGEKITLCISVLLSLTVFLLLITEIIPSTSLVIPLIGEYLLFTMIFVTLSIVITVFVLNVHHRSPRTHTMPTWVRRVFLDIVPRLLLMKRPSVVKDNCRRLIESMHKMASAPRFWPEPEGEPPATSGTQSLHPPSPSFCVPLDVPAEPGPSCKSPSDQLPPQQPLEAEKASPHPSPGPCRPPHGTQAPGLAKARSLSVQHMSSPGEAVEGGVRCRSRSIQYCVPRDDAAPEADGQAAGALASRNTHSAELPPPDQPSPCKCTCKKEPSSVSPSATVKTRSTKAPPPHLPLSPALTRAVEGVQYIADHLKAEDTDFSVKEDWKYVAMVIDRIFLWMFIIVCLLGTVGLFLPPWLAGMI
α4β2 nueronal nicotinic receptors, sequence (P17787 26-502): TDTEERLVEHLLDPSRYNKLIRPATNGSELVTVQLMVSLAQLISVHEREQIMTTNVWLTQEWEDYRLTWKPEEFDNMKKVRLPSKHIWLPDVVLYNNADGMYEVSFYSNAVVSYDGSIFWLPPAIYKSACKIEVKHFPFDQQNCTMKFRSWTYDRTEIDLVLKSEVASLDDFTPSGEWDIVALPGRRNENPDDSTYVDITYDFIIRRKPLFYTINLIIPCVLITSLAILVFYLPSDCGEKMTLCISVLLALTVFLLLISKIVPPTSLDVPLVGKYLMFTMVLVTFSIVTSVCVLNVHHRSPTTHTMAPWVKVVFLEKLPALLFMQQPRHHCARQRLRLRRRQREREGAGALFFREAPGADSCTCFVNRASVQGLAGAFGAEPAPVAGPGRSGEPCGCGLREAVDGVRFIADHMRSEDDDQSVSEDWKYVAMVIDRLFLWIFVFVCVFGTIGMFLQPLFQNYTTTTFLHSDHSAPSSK

[5] = biological target: α3β4 nueronal nicotinic receptors (Homo sapiens, UniProt P30926+P32297); experiment: Agonism at α3β4 neuronal nicotinic receptors (statement)
α3β4 nueronal nicotinic receptors, sequence (P32297 32-505): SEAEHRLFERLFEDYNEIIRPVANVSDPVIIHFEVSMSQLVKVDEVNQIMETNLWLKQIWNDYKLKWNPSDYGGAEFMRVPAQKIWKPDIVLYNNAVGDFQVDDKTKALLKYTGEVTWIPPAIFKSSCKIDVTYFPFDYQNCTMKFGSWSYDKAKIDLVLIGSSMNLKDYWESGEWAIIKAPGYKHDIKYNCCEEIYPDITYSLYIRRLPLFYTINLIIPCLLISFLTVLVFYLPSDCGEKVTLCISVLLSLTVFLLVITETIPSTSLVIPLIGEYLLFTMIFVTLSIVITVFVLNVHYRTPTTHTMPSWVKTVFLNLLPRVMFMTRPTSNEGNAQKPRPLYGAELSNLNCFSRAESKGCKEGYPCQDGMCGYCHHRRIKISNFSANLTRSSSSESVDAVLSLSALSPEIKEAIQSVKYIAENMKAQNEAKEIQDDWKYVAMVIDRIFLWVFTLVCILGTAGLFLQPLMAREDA
α3β4 nueronal nicotinic receptors, sequence (P30926 22-498): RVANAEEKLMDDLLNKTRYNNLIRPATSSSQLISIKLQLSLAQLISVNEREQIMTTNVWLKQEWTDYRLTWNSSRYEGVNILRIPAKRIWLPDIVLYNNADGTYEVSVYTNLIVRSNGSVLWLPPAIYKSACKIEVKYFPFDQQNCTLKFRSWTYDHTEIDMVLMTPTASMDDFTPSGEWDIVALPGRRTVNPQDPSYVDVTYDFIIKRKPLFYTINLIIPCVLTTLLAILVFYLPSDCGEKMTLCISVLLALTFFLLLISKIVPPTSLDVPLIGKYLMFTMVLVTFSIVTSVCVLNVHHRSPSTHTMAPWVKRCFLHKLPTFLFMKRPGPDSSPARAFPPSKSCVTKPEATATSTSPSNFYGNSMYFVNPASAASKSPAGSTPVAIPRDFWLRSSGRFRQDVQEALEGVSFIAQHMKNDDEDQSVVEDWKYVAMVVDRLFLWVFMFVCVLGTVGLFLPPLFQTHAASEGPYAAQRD

Row | Compound | analgesic effect (allodynia) ([1]; chronically administered) | half-life [2] | time of diarrhea after dosing (normal healthy subjects; MRD study, 10 mg 4 times daily) | time of nausea and vomiting after dosing (normal healthy subjects; MRD study, 10 mg 4 times daily) | systemic concentration when diarrhea observed (normal healthy subjects; MRD study, more than 5 hours following dosing) | most commonly observed adverse events (normal healthy subjects; SRD and MRD studies, healthy subjects) | GI motility (normal healthy subjects; healthy human subjects) | analgesic properties (subjects with IBS-C; IBS-C subjects) | most commonly reported adverse events (subjects with IBS-C; IBS-C subjects, 28 days) | severity of adverse events (subjects with IBS-C; IBS-C subjects, 28 days) | tolerability (subjects with IBS-C; enteric coated capsule, 5 mg daily 14 days then 5 mg BID 14 days) | spontaneous bowel movements (SBM) (subjects with IBS-C; versus placebo, maintained over at least 1 month) | SBM relative to Tegaserod, Lubiprostone and Linaclotide (subjects with IBS-C; week 4, FIG. 2, comparator data from literature) | blood glucose levels [3] | pain sensitivity (allodynia testing of the hindpaw) [3] | receptor activity type [4] | receptor activity type [5] | analgesic effect (allodynia) ([1]; acutely administered)
1 | C(=C\[C@H]1CCNC1)/c1cncnc1 [Compound A, (R)-5-((E)-2-pyrrolidin-3-ylvinyl)pyrimidine] | analgesic effect | ≤ 1 h | more than 5 hours | ≤ 30 min | approximately 20 % of Cmax values | nausea, vomiting and diarrhea | increase in GI motility | appears to lack analgesic properties | headache or gastrointestinal | mild to moderate | generally well tolerated | robust increases | compares favorably | absence of any changes to blood glucose levels | significant reversal of this pain | agonist | agonist | –
2 | insulin: insulin-treated group in the STZ-rat model of diabetic neuropathy [reference compound] | – | – | – | – | – | – | – | – | – | – | – | – | – | reduced blood glucose levels | did not have significant improvement in pain sensitivity | – | – | –
3 | NCC1(CC(=O)O)CCCCC1 [Gabapentin, reference compound] | – | – | – | – | – | – | – | – | – | – | – | – | – | – | – | – | – | analgesic effect
